From patent US20180305332A1, “Bispiperidinyl Derivatives as Liver X Receptor Beta Agonists, Compositions, and Their Use” (Merck Sharp & Dohme Corp., priority 2015, published 2018)

What was measured:
[1] = target: T1, GST tagged LXRbeta LBD (ligand binding domain) (Homo sapiens, UniProt P55055); assay: LanthaScreen TR-FRET Liver X Receptor Coactivator Assay, LXR beta-LBD; assay type: biochemical; details: relative to reference T0901317; for EC50: Inflection Point (potency), co-activator recruitment, read-out: LXR beta IP; for Emax: activity at max dose (efficacy), read-out: LXR beta act @ max dose (%)
T1 construct: purchased Invitrogen pv4658.pps
T1 sequence (P55055 222-460 limits assumed): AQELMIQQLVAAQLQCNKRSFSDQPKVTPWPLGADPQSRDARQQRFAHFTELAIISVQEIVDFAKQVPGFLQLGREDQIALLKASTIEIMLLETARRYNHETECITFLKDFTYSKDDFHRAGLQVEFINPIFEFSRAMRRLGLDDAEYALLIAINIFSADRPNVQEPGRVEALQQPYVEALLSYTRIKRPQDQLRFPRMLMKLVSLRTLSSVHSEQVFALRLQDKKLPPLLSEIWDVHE
In short: (§1)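 Coactivator-recruitment TR-FRET format: GST-LBD, fluorescein-labelled coactivator peptide, Tb-conjugated anti-GST antibody, incubated at RT. Potency and efficacy scaled to T0901317.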

[2] = target: T2, GST tagged LXRalpha LBD (ligand binding domain) (Homo sapiens, UniProt Q13133); assay: LanthaScreen TR-FRET Liver X Receptor Coactivator Assay, LXR alpha-LBD; assay type: biochemical; details: relative to reference T0901317; for EC50: read-out: LXR alpha IP; for Emax: activity at max dose (efficacy), read-out: LXR alpha act @ max dose (%)
T2 construct: purchased Invitrogen pv4655
T2 sequence (Q13133 209-447 limits assumed): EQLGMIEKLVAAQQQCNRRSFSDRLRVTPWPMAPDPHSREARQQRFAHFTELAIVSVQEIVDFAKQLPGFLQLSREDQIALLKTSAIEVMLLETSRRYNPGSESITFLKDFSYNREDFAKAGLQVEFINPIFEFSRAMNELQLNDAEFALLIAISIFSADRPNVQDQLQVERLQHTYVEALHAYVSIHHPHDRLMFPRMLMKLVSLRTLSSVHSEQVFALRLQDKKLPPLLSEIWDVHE
In short: as §1

[3] = Inflection Point (potency), co-activator recruitment

EC50 [1] | Emax [1] | EC50 [2, 3] | Emax [2] | LXR alpha IP (nM) [2, 3] | Compound
148 nM | 101% | 21 nM | 24% | – | Cc1nc(N2CCC(C3CCN(C(=O)C(O)(C(C)C)C(F)(F)F)CC3)CC2)ccc1C(=O)N(C)C (centres unmarked) [Example C-1, 6-(1′-(2-Hydroxy-3-methyl-2-(trifluoromethyl)butanoyl)-[4,4′-bipiperidin]-1-yl)-N,N,2-trimethylnicotinamide]
157 nM | 101% | 1450 nM | 43% | – | CC(C)C(O)(C(=O)N1CCC(C2CCN(c3cc(F)c(C(=O)N(C)C)c(F)c3)CC2)CC1)C(F)(F)F [Example D-1, 2,6-difluoro-4-{1′-[2-hydroxy-3-methyl-2-(trifluoromethyl)butanoyl]-4,4′-bipiperidin-1-yl}-N,N-dimethylbenzamide]
400 nM | 99% | 2770 nM | 41% | – | CC(C)C(O)(C(=O)N1CCC(C2CCN(c3ccc(C(=O)N(C)C)c(F)c3)CC2)CC1)C(F)(F)F [Example D-2, 2-fluoro-4-{1′-[2-hydroxy-3-methyl-2-(trifluoromethyl)butanoyl]-4,4′-bipiperidin-1-yl}-N,N-dimethylbenzamide]
273 nM | 118% | 1570 nM | 67% | – | CC(C)C(O)(C(=O)N1CCC(C2CCN(c3ccc(C(=O)N(C)C)cc3Cl)CC2)CC1)C(F)(F)F [Example D-3, 3-chloro-4-{1′-[2-hydroxy-3-methyl-2-(trifluoromethyl)butanoyl]-4,4′-bipiperidin-1-yl}-N,N-dimethylbenzamide]
371 nM | 89% | 2050 nM | 29% | – | CN(C)S(=O)(=O)c1ccc(N2CCC(C3CCN(C(=O)[C@](O)(c4ccccc4)C(F)(F)F)CC3)CC2)cc1Cl [Example D-4, 2-chloro-N,N-dimethyl-4-{1′-[(2R)-3,3,3-trifluoro-2-hydroxy-2-phenylpropanoyl]-4,4′-bipiperidin-1-yl}benzenesulfonamide]
418 nM | 86% | 1520 nM | 28% | – | CC(C)S(=O)(=O)c1ccc(N2CCC(C3CCN(C(=O)[C@](O)(c4ccccc4)C(F)(F)F)CC3)CC2)cc1Cl [Example D-5, (2R)-3-(1′-{3-chloro-4-[(1-methylethyl)sulfonyl]phenyl}-4,4′-bipiperidin-1-yl)-1,1,1-trifluoro-3-oxo-2-phenylpropan-2-ol]
380 nM | 49% | 772 nM | 18% | – | CS(=O)(=O)c1ccc(N2CCC(C3CCN(C(=O)c4c(F)cccc4F)CC3)CC2)cc1Cl [Example D-6, 1-[3-chloro-4-(methylsulfonyl)phenyl]-1′-[(2,6-difluorophenyl)carbonyl]-4,4′-bipiperidine]
180 nM | 82% | 413 nM | 20% | – | CS(=O)(=O)c1ccc(N2CCC(C3CCN(C(=O)[C@](O)(c4ccccc4)C(F)(F)F)CC3)CC2)cc1Cl [Example D-7, (2R)-3-{1′-[3-chloro-4-(methylsulfonyl)phenyl]-4,4′-bipiperidin-1-yl}-1,1,1-trifluoro-3-oxo-2-phenylpropan-2-ol]
185 nM | 134% | 2490 nM | 64% | – | CC(C)(C(=O)N1CCC(C2CCN(c3cccc(S(C)(=O)=O)c3)CC2)CC1)c1ccccc1 [Example D-8, 1-(2-methyl-2-phenylpropanoyl)-1′-[3-(methylsulfonyl)phenyl]-4,4′-bipiperidine]
124 nM | 81% | 822 nM | 41% | – | CC(C)(C)OC(=O)N1CCC(C2CCN(c3ccc(S(C)(=O)=O)c(Cl)c3)CC2)CC1 [Example D-9, tert-butyl 1′-[3-chloro-4-(methylsulfonyl)phenyl]-4,4′-bipiperidine-1-carboxylate]
237 nM | 36% | 857 nM | 29% | – | COC(=O)c1ccc(N2CCC(C3CCN(C(=O)OC(C)(C)C)CC3)CC2)nc1Cl [Example E-1, tert-butyl 1′-[6-chloro-5-(methoxycarbonyl)pyridin-2-yl]-4,4′-bipiperidine-1-carboxylate]
153 nM | 25% | 58 nM | 26% | – | COC(=O)c1ccc(N2CCC(C3CCN(C(=O)c4c(F)cccc4F)CC3)CC2)cc1Cl [Example E-2, methyl 2-chloro-4-{1′-[(2,6-difluorophenyl)carbonyl]-4,4′-bipiperidin-1-yl}benzoate]
297 nM | 81% | 127 nM | 30% | – | CC(C)C(O)(C(=O)N1CCC(C2CCN(c3ccc(C(=O)N4CC(F)(F)C4)c(Cl)c3)CC2)CC1)C(F)(F)F (centres unmarked) [Example E-3, 2-[(1′-{3-chloro-4-[(3,3-difluoroazetidin-1-yl)carbonyl]phenyl}-4,4′-bipiperidin-1-yl)carbonyl]-1,1,1-trifluoro-3-methylbutan-2-ol]
51 nM | 94% | 180 nM | 67% | – | CC(C)C(O)(C(=O)N1CCC(C2CCN(c3ccc(C(N)=O)c(Cl)c3)CC2)CC1)C(F)(F)F (centres unmarked) [Example E-4, 2-chloro-4-{1′-[2-hydroxy-3-methyl-2-(trifluoromethyl)butanoyl]-4,4′-bipiperidin-1-yl}benzamide]

The next lines start with the molecule.

Compound | EC50 [1] | Emax [1] | EC50 [2, 3] | Emax [2] | LXR alpha IP (nM) [2, 3]
CC(C)C(O)(C(=O)N1CCC(C2CCN(c3ccc(C(=O)N(C)C)c(Cl)n3)CC2)CC1)C(F)(F)F (centres unmarked) [Example B-4, 2-chloro-6-{1′-[2-hydroxy-3-methyl-2-(trifluoromethyl)butanoyl]-4,4′-bipiperidin-1-yl}-N,N-dimethylpyridine-3-carboxamide] | 26 nM | 123% | 493 nM | 48% | –
CC(C)CC(O)(C(=O)N1CCC(C2CCN(c3ccc(C(=O)N(C)C)c(Cl)n3)CC2)CC1)C(F)(F)F (centres unmarked) [Example B-7, 2-chloro-6-{1′-[2-hydroxy-4-methyl-2-(trifluoromethyl)pentanoyl]-4,4′-bipiperidin-1-yl}-N,N-dimethylpyridine-3-carboxamide] | 72 nM | 127% | 1430 nM | 55% | –
CN(C)C(=O)c1ccc(N2CCC(C3CCN(C(=O)c4c(F)cccc4F)CC3)CC2)nc1Cl [Example B-8, 2-chloro-6-{1′-[(2,6-difluorophenyl)carbonyl]-4,4′-bipiperidin-1-yl}-N,N-dimethylpyridine-3-carboxamide] | 71 nM | 95% | 885 nM | 38% | –
CN(C)C(=O)c1ccc(N2CCC(C3CCN(C(=O)c4c(Cl)cccc4Cl)CC3)CC2)nc1Cl [Example B-10, 2-chloro-6-{1′-[(2,6-dichlorophenyl)carbonyl]-4,4′-bipiperidin-1-yl}-N,N-dimethylpyridine-3-carboxamide] | 161 nM | 106% | 1370 nM | 55% | –
CN(C)C(=O)c1ccc(N2CCC(C3CCN(C(=O)C(C)(O)C(F)(F)F)CC3)CC2)nc1Cl (centres unmarked) [Example B-11, 2-chloro-N,N-dimethyl-6-[1′-(3,3,3-trifluoro-2-hydroxy-2-methylpropanoyl)-4,4′-bipiperidin-1-yl]pyridine-3-carboxamide] | 177 nM | 116% | 2200 nM | 48% | –
CN(C)C(=O)c1ccc(N2CCC(C3CCN(C(=O)C(C)(C)c4ccccc4)CC3)CC2)nc1Cl [Example B-12, 2-chloro-N,N-dimethyl-6-[1′-(2-methyl-2-phenylpropanoyl)-4,4′-bipiperidin-1-yl]pyridine-3-carboxamide] | 65 nM | 140% | 684 nM | 69% | –
CN(C)C(=O)c1ccc(N2CCC(C3CCN(C(=O)C(O)(c4ccccc4)C(F)(F)F)CC3)CC2)nc1Cl (centres unmarked) [Example B-13, 2-chloro-N,N-dimethyl-6-[1′-(3,3,3-trifluoro-2-hydroxy-2-phenylpropanoyl)-4,4′-bipiperidin-1-yl]pyridine-3-carboxamide] | 291 nM | 95% | – | 28% | NO IP
CN(C)C(=O)c1ccc(N2CCC(C3CCN(C(=O)C4(c5ccccc5)CCC4)CC3)CC2)nc1Cl [Example B-14, 2-chloro-N,N-dimethyl-6-{1′-[(1-phenylcyclobutyl)carbonyl]-4,4′-bipiperidin-1-yl}pyridine-3-carboxamide] | 73 nM | 114% | 1230 nM | 43% | –
CN(C)C(=O)c1ccc(N2CCC(C3CCN(C(=O)C(O)(C(F)(F)F)C(F)(F)F)CC3)CC2)nc1Cl [Example B-15, 2-chloro-N,N-dimethyl-6-{1′-[3,3,3-trifluoro-2-hydroxy-2-(trifluoromethyl)propanoyl]-4,4′-bipiperidin-1-yl}pyridine-3-carboxamide] | 34 nM | 121% | 2240 nM | 87% | –
